“And” between values parts separate entries of the source, which are not always exact repeats. Identical values can stand only once. Like-named read-outs stand apart in the source and are kept apart here.
How the values were obtained:
[1] = test system: Herpes simplex virus, type I (HSV-1); assay: microbe, parasite or virus in culture; assay type: cell-based; conditions: for zone of inhibition at 20 µg/disc / zone of inhibition at 50 µg/disc / zone of inhibition at 100 µg/disc / zone of inhibition at 200 µg/disc: Human alphaherpesvirus 1, in Primates
Bacillus subtilis = assay: Disc diffusion antimicrobial assay, Bacillus subtilis; assay type: cell-based; conditions: for zone of inhibition at 10 µg/disc / zone of inhibition at 50 µg/disc / zone of inhibition at 100 µg/disc: Bacillus subtilis, 6.5 mm disc, read-out: diameter of the clear zone of inhibition; for zone of inhibition at 50 µg/disc: 50 μg/disk; for zone of inhibition at 100 µg/disc: 100 μg/disk
[2] = test system: Herpes Simplex Virus type 1 (HSV-1); assay: Antiviral activity against HSV-1 determined by Dr. R. G. Hughes, Jr.;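 further: grades: +++ strong ++ moderate + light ± questionable - negative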; assay type: cell-based
Escherichia coli = assay: Disc diffusion antimicrobial assay, Escherichia coli; assay type: cell-based; conditions: for zone of inhibition at 10 µg/disc / zone of inhibition at 50 µg/disc / zone of inhibition at 100 µg/disc: Escherichia coli, 6.5 mm disc, read-out: diameter of the clear zone of inhibition; for zone of inhibition at 10 µg/disc / activity against Escherichia coli: 10 μg/disk; for zone of inhibition at 50 µg/disc: 50 μg/disk; for zone of inhibition at 100 µg/disc: 100 μg/disk
[3] = test system: Monkey Kidney Cells (CV-1); assay: Cytotoxicity to monkey kidney cells (CV-1) determined by Dr. R. G. Hughes, Jr.; conditions: 8 or less essentially indicates noncytotoxicity
E. coli strain BR339 = assay type: cell-based
[4] = test system: vesicular stomatitis virus (VSV); assay: microbe, parasite or virus in culture; assay type: cell-based; conditions: Vesicular stomatitis virus, in Primates
[5] = test system: Balanus amphitrite amphitrite; assay: Barnacle settlement assay, inhibition; assay type: in vivo, Balanus amphitrite amphitrite (barnacle); conditions: Amphibalanus amphitrite
[6] = Stability of isolated solids; assay type: physicochemical; conditions: diacetate salts, amorphous solids
[7] = Water solubility (in words); assay type: physicochemical; conditions: relative to 1a-6a
[8] = test system: Balanus amphitrite amphitrite; assay: Barnacle settlement assay, facilitation; assay type: in vivo, Balanus amphitrite amphitrite (barnacle); conditions: Amphibalanus amphitrite
[9] = read-out: antiviral activity, HSV-1, ++ scale
[10] = read-out: antiviral activity, HSV-1, zone diameter
[11] = read-out: antiviral activity, VSV, ++ scale
[12] = read-out: antiviral activity, VSV, zone diameter

Row | Structure (SMILES) | zone of inhibition at 20 µg/disc [1, 9] [mm] | zone of inhibition at 50 µg/disc [1, 9] [mm] | zone of inhibition at 100 µg/disc [1, 9] [mm] | zone of inhibition at 200 µg/disc [1, 9] [mm] | zone of inhibition at 20 µg/disc [1, 10] [mm] | zone of inhibition at 100 µg/disc [1, 10] [mm] | zone of inhibition at 200 µg/disc [1, 10] [mm] | zone of inhibition at 10 µg/disc (Bacillus subtilis; 10 μg/disk) [mm] | zone of inhibition at 50 µg/disc (Bacillus subtilis) [mm] | zone of inhibition at 100 µg/disc (Bacillus subtilis) [mm] | HSV-1 activity ([2]; 25 μg/disk) | HSV-1 activity ([2]; 50 μg/disk) | HSV-1 activity ([2]; 100 μg/disk) | zone of inhibition at 10 µg/disc (Escherichia coli) [mm] | zone of inhibition at 50 µg/disc (Escherichia coli) [mm] | zone of inhibition at 100 µg/disc (Escherichia coli) [mm] | cytotoxicity, zone diameter ([3]; 25 μg/disk) [mm] | cytotoxicity, zone diameter ([3]; 50 μg/disk) [mm] | cytotoxicity, zone diameter ([3]; 100 μg/disk) [mm] | zone of inhibition at 20 µg/disc [4, 11] [mm] | further results
1 | Nc1ncc([C@@H]2[C@@H](CNC(=O)c3ccc[nH]3)[C@H](CNC(=O)c3cc(Br)c[nH]3)[C@H]2c2cnc(N)[nH]2)[nH]1 (relative stereo) [Compound 1a, Debromosceptrin Acetate] | 11 to 15 | 11 to 15 | 11 to 15 | > 16 | 11 | 15 | 18 | 7 | 11 | 12 | ± | ± | ± | 0 | 8 | 11 | 5 | 5 | 5 | < 7 | zone of inhibition at 50 µg/disc [1, 10]: 12 mm; growth inhibition of Bacillus subtilis (Bacillus subtilis; 10 μg/disk): most active; BIA activity (E. coli strain BR339): inducers; BIA activity, numerical color intensity scale 0-10 (E. coli strain BR339): 10 and 7 and 6; zone of inhibition at 50 µg/disc [4, 11]: < 7 mm; zone of inhibition at 100 µg/disc [4, 11]: 7 mm; zone of inhibition at 200 µg/disc [4, 11]: 8 to 10 mm; zone of inhibition at 20 µg/disc [4, 12]: 0 mm; zone of inhibition at 50 µg/disc [4, 12]: 0 mm; zone of inhibition at 100 µg/disc [4, 12]: 7 mm; zone of inhibition at 200 µg/disc [4, 12]: 8 mm
2 | Nc1ncc([C@@H]2[C@@H](CNC(=O)c3cc(Br)c(Br)[nH]3)[C@H](CNC(=O)c3cc(Br)c(Br)[nH]3)[C@H]2c2cnc(N)[nH]2)[nH]1 (relative stereo) [Compound 3a, Dibromosceptrin Acetate] | 8 to 10 | 11 to 15 | 11 to 15 | 11 to 15 | 9 | 12 | 14 | 0 | 10 | 10 | - | ++ | +++ | 0 | 7 | 7 | 5 | 5 | 7 | < 7 | zone of inhibition at 50 µg/disc [1, 10]: 11 mm; BIA activity (E. coli strain BR339): somewhat less active; BIA activity, numerical color intensity scale 0-10 (E. coli strain BR339): 3 and 2; zone of inhibition at 100 µg/disc [4, 11]: 8 to 10 mm; zone of inhibition at 200 µg/disc [4, 11]: 11 to 15 mm; zone of inhibition at 20 µg/disc [4, 12]: 0 mm; zone of inhibition at 100 µg/disc [4, 12]: 10 mm; zone of inhibition at 200 µg/disc [4, 12]: 12 mm
3 | Nc1ncc(C2c3nc(N)[nH]c3CC(CNC(=O)c3cc(Br)c[nH]3)C2CNC(=O)c2cc(Br)c[nH]2)[nH]1 (centres unmarked) [Compound 4a, Ageliferin Acetate] | 8 to 10 | 11 to 15 | 11 to 15 | > 16 | 10 | 14 | 17 | 10 | 15 | 16 | - | + | ++ | 7 | 9 | 9 | 5 | 5 | 8 | < 7 | zone of inhibition at 50 µg/disc [1, 10]: 13 mm; activity against Escherichia coli (Escherichia coli): active; EC50 [5]: 21 µg/mL; zone of inhibition at 50 µg/disc [4, 11]: 8 to 10 mm; zone of inhibition at 100 µg/disc [4, 11]: 8 to 10 mm; zone of inhibition at 200 µg/disc [4, 11]: 11 to 15 mm; zone of inhibition at 20 µg/disc [4, 12]: 0 mm; zone of inhibition at 50 µg/disc [4, 12]: 8 mm; zone of inhibition at 100 µg/disc [4, 12]: 10 mm; zone of inhibition at 200 µg/disc [4, 12]: 12 mm
4 | Nc1ncc(C2c3nc(N)[nH]c3CC(CNC(=O)c3cc(Br)c(Br)[nH]3)C2CNC(=O)c2cc(Br)c[nH]2)[nH]1 (centres unmarked) [Compound 5a, Bromoageliferin Acetate] | 8 to 10 | 11 to 15 | 11 to 15 | 11 to 15 | 9 | 11 | 13 | 10 | 12 | 12 | - | ± | ++ | 7 | 8 | 8 | 5 | 5 | 7 | < 7 | zone of inhibition at 50 µg/disc [1, 10]: 11 mm; activity against Escherichia coli (Escherichia coli): active; BIA activity, numerical color intensity scale 0-10 (E. coli strain BR339): 3 and 2; zone of inhibition at 50 µg/disc [4, 11]: < 7 mm; zone of inhibition at 100 µg/disc [4, 11]: 8 to 10 mm; zone of inhibition at 200 µg/disc [4, 11]: 8 to 10 mm; zone of inhibition at 20 µg/disc [4, 12]: 0 mm; zone of inhibition at 50 µg/disc [4, 12]: 0 mm; zone of inhibition at 100 µg/disc [4, 12]: 10 mm; zone of inhibition at 200 µg/disc [4, 12]: 10 mm
5 | NC1=NC(=O)C(C2C(CNC(=O)c3cc(Br)c[nH]3)C(CNC(=O)c3cc(Br)c[nH]3)C2c2cnc(N)[nH]2)N1 (centres unmarked) [Compound 8a, Oxysceptrin Acetate] | < 7 | 8 to 10 | 11 to 15 | 11 to 15 | 0 | 11 | 12 | 0 | 14 | 15 | - | - | + | 0 | 8 | 10 | 5 | 5 | 6 | < 7 | stability [6]: stable; antiviral zone appearance [1]: diffuse zones; water solubility [7]: more water soluble; EC50 [8]: 0.017 µg/mL; BIA activity (E. coli strain BR339): inducers; BIA activity, numerical color intensity scale 0-10 (E. coli strain BR339): 9 and 6; BIA zone appearance (E. coli strain BR339): more diffuse zone; zone of inhibition at 50 µg/disc [4, 11]: < 7 mm; zone of inhibition at 100 µg/disc [4, 11]: 8 to 10 mm; zone of inhibition at 200 µg/disc [4, 11]: 8 to 10 mm; zone of inhibition at 20 µg/disc [4, 12]: 0 mm; zone of inhibition at 50 µg/disc [4, 12]: 0 mm; zone of inhibition at 100 µg/disc [4, 12]: 8 mm

— US4737510A, “Bioactive metabolites from the caribbean sponge agelas coniferin” (priority 1986, dated 1988)
